Assay results: ChEMBL document CHEMBL1201862, “PubChem BioAssay data set” (2004)
Calls of active or inactive are those of the source.

What was measured:
[1] = Luminescence Cell-Based Dose Retest to Confirm Inhibitors of Cancer Stem Cells. [Related pubchem assays (depositor defined):AID2717, AID2721]; assay type: functional; conditions: Homo sapiens
[2] = HeLa 2N DNA content increase, dose response, cell-based, IC50 (AID 1117349); assay type: functional
[3] = Concentration-dependent survival of SW480 colon cancer line, luminescence detection with CellTiter-Glo, half-maximal inhibitory concentration (AID 1117338); assay type: functional
[4] = RKO cell viability reduction, dose response, CellTiter-Glo luminescence (AID 1117322); assay type: functional
[5] = cytotoxicity toward HCT116 cells – cell-based, CellTiter-Glo luminescence, IC50, dose response (AID 1117332); assay type: functional; conditions: HCT-116
[6] = SNU-C1 cell viability reduction, dose response, CellTiter-Glo luminescence (AID 1117323); assay type: functional, cell-based
[7] = cytotoxicity toward Colo320 cells – cell-based, CellTiter-Glo luminescence, IC50, dose response (AID 1117334); assay type: functional; conditions: COLO 320
[8] = HeLa 4N DNA content increase, dose response, cell-based, IC50 (AID 1117351); assay type: functional
[9] = cytotoxicity toward HT-29 cells – cell-based, CellTiter-Glo luminescence, IC50, dose response (AID 1117330); assay type: functional
[10] = CellTiter-Glo luminescent dose response of DLD-1 viability loss (AID 1117352); assay type: functional
[11] = HCT116 cell viability decrease, GSK3B pretreatment – CellTiter-Glo, IC50, dose response (AID 1117339); assay type: functional; conditions: HCT-116
[12] = target: T1, Tyrosine-protein phosphatase non-receptor type 7 (Homo sapiens, UniProt P35236); experiment: inhibitors of human HePTP phosphatase, […], biochemical, absorbance, leukemia target (AID 521); assay type: functional
T1 sequence (P35236 whole entry): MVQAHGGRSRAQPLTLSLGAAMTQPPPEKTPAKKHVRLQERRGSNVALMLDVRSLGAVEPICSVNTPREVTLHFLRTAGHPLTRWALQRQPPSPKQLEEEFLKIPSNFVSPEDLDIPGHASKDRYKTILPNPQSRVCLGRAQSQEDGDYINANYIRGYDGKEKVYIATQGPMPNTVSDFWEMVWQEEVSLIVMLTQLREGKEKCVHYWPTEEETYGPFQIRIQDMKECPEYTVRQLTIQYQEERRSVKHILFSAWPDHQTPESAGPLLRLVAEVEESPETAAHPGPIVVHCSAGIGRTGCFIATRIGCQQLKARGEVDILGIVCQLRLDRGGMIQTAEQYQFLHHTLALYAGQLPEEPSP

[13] = P. falciparum late gametocyte killing, dose response, luminescence (AID 1117278); assay type: functional, cell-based;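 further: gametocytes exposed to compound for 24 hours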
[14] = Jurkat T cell cytotoxicity, dose response, cytotoxicity control for P. falciparum gametocyte viability project, luminescence (AID 1117277); assay type: functional, cell-based;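 further: potency reflects loss of cellular ATP meaning fewer viable cells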
[15] = target: E3 ubiquitin-protein ligase Mdm2 (Homo sapiens, UniProt Q00987); experiment: enhancers of MDM2-luciferase reporter signal, concentration-effect titration, project on inhibitors of MDM2 ubiquitin ligase, cellular assay, luminescent readout, 384-well plate format (AID 1394); assay type: functional;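 further: MDM2 E3 inhibitors raise luminescence so EC50 is for signal enhancement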
[16] = target: Bifunctional protein GlmU (Mycobacterium tuberculosis, UniProt P9WMN3); experiment: Inhibitors of Mycobacterial Glucosamine-1-phosphate acetyl transferase (GlmU). Secondary screen.; set-up: species or system Mycobacterium tuberculosis H37Rv
Protein skinhead-1 = target: T2, Protein skinhead-1 (Caenorhabditis elegans, UniProt P34707); assay type: functional
T2 sequence (P34707 whole entry): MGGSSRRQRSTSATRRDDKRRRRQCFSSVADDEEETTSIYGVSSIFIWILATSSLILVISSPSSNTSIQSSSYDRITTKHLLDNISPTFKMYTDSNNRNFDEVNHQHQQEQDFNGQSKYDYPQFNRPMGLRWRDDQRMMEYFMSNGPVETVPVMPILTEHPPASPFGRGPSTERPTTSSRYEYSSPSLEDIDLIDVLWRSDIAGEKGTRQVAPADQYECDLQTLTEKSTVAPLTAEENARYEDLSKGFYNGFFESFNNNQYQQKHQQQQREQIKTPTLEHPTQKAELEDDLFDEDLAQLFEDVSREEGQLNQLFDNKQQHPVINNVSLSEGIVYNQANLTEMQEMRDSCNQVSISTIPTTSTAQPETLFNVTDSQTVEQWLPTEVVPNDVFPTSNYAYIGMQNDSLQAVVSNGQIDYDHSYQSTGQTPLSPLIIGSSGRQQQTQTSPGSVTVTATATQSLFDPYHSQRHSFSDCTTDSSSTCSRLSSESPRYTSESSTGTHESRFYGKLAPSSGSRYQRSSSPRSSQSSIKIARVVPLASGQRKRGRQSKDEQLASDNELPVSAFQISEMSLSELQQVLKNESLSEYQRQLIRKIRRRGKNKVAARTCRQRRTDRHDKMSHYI

[17] = target: Peroxisome proliferator-activated receptor gamma/Nuclear receptor corepressor 2 (Homo sapiens, UniProt P37231+Q9Y618); experiment: Counterscreen for NR2E3 inverse agonists: TR-FRET-based biochemical high throughput dose response assay to identify inverse agonists of the interaction between peroxisome proliferator-activated receptor gamma (PPARg) and nuclear receptor co-repressor 2 (NCOR2).; assay type: functional
[18] = target: Photoreceptor-specific nuclear receptor (Homo sapiens, UniProt Q9Y5X4); experiment: NR2E3 inverse agonists, dose response, biochemical, TR-FRET (AID 463256); assay type: functional
[19] = target: G-protein coupled receptor 183 (Homo sapiens, UniProt P32249); experiment: SAR confirmation of small molecule antagonists of the EBI2 receptor via a luminescent beta-arrestin assa.; assay type: functional
[20] = target: Luciferin 4-monooxygenase (Photinus pyralis, UniProt P08659); experiment: firefly luciferase enzyme inhibitors, dose response, biochemical, luminescence (AID 1891)
[21] = Luminescence Cell-Based Dose Confirmation HTS to Identify Inhibitors of Platelet Dense Granule Release. [Related pubchem assays: 1663 (Primary HTS), 1678 (Summary of Project)]; assay type: functional
[22] = Fluorescence Cell-Based Dose Response to Identify Inhibitors of Thrombin Receptor-Activating Peptide SFLLRN-Mediated P-Selectin Induction on Platelets. [Related pubchem assays: 1663 (Primary HTS), 1889 (retest at dose ), 1891 (counterscreen), 1678 (Project Summary)]; assay type: functional
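Wherever AC50 is given: cells exposed to compound for roughly 70 hours or longer before luminescence read.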

Sequence of G-protein coupled receptor 183 (P32249 whole entry): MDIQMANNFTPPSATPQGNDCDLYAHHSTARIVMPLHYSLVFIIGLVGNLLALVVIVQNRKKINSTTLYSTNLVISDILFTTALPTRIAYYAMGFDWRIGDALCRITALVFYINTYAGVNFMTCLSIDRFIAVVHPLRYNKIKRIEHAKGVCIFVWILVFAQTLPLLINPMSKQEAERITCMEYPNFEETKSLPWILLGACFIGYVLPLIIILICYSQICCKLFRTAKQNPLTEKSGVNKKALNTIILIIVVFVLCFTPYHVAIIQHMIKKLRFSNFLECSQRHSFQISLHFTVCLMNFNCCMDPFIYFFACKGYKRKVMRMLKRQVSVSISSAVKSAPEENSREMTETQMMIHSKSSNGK
Sequence of E3 ubiquitin-protein ligase Mdm2 (Q00987 whole entry): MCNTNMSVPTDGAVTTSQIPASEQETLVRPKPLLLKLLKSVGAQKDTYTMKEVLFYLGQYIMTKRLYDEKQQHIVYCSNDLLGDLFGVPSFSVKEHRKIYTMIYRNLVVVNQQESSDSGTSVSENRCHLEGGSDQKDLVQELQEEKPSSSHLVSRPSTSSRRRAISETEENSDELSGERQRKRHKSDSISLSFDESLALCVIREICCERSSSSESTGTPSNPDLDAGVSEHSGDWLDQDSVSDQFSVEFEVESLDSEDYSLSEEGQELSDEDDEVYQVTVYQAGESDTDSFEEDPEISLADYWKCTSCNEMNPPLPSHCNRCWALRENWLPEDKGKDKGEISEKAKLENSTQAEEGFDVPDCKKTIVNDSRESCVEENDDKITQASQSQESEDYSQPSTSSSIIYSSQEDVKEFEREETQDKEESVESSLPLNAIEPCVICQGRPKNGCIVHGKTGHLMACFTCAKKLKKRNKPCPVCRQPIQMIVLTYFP
Sequence of Luciferin 4-monooxygenase (P08659 whole entry): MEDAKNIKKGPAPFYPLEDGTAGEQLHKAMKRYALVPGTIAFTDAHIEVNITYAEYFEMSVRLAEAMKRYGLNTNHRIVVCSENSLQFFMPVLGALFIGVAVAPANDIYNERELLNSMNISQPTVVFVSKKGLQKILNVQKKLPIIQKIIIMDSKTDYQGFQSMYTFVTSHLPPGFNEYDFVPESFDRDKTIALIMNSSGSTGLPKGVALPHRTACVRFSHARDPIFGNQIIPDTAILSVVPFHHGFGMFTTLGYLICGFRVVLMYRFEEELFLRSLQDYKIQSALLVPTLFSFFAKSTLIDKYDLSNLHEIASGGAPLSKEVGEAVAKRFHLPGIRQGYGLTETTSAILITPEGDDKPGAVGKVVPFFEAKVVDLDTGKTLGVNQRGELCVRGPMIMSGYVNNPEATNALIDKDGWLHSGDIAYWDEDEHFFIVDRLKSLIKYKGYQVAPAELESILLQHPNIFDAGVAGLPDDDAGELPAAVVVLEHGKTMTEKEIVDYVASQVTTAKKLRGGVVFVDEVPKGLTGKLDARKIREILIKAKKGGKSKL
Sequence of Peroxisome proliferator-activated receptor gamma/Nuclear receptor corepressor 2 (P37231 whole entry): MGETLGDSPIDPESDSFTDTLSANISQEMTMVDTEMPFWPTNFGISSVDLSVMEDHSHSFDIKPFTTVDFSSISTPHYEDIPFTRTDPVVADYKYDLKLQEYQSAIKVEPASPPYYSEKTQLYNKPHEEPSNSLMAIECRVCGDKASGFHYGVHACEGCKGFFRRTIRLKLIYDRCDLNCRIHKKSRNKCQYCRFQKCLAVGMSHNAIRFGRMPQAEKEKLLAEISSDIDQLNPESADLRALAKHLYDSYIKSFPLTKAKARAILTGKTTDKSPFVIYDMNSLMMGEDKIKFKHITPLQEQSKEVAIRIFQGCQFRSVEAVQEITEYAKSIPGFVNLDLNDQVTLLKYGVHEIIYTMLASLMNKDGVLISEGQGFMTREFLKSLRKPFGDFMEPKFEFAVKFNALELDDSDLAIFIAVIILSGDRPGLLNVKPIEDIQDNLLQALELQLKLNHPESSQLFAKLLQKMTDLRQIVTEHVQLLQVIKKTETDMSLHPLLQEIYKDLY
Sequence of Peroxisome proliferator-activated receptor gamma/Nuclear receptor corepressor 2 (Q9Y618 whole entry): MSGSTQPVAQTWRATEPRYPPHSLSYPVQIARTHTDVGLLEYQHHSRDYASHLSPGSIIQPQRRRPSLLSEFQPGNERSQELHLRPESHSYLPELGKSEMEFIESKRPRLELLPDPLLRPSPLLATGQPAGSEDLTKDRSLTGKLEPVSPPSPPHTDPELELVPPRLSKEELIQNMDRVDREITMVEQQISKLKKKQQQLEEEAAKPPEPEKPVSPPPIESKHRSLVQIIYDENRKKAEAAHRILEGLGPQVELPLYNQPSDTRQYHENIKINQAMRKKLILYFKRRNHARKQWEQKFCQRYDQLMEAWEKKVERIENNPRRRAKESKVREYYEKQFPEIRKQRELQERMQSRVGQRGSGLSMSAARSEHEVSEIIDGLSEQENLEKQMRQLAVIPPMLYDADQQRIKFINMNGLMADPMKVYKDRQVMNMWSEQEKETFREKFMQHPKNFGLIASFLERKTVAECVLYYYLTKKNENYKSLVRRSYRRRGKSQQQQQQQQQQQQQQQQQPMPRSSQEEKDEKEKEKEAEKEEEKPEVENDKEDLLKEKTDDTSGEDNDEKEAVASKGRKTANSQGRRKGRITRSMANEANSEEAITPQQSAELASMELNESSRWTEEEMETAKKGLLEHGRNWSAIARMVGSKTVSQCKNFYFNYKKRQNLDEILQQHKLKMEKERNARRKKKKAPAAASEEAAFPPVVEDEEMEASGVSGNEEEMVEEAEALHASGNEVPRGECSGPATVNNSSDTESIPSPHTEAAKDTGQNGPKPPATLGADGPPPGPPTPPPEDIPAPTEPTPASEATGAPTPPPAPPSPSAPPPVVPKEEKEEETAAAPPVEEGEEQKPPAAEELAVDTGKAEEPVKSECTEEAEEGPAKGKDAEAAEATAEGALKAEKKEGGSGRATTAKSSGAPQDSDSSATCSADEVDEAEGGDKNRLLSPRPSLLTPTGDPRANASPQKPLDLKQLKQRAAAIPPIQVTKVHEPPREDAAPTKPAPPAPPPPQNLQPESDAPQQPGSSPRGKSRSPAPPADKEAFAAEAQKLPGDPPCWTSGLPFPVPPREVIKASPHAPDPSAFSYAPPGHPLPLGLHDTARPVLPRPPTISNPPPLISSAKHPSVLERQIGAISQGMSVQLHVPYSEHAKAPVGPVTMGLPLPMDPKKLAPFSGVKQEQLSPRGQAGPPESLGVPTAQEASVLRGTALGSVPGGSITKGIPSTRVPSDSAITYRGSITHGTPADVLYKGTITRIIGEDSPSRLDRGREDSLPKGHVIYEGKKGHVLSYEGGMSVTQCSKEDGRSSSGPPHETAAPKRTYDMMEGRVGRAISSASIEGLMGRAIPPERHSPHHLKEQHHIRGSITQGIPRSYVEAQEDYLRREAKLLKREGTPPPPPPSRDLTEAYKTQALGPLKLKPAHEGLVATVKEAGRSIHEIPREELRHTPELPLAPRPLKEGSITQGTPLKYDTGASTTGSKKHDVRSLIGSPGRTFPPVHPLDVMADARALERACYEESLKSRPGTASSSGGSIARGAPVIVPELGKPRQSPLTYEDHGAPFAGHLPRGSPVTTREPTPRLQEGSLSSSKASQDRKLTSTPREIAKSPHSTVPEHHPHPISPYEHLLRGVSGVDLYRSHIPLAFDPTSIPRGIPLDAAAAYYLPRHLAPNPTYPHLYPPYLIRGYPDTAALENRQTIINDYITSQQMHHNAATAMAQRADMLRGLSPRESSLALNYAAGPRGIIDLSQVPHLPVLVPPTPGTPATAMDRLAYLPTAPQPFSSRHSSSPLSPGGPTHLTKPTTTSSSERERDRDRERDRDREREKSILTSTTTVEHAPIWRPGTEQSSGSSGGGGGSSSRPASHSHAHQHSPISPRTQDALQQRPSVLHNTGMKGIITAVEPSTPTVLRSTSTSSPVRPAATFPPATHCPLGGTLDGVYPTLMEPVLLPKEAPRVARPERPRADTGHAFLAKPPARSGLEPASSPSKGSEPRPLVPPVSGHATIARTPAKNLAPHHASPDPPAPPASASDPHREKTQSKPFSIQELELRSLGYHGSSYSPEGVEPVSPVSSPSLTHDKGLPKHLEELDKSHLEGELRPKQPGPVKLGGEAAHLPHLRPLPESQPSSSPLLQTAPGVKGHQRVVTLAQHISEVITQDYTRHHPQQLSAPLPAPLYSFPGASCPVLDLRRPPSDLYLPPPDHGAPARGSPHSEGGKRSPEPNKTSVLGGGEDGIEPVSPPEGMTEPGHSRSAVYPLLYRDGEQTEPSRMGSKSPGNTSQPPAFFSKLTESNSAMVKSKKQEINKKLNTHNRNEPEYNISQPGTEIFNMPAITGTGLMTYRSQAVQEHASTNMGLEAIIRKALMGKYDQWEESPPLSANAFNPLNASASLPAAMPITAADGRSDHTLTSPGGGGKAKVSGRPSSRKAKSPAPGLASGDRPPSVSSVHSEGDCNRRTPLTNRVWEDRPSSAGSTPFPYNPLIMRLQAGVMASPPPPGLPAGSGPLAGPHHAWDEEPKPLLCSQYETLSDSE
Sequence of Bifunctional protein GlmU (P9WMN3 whole entry): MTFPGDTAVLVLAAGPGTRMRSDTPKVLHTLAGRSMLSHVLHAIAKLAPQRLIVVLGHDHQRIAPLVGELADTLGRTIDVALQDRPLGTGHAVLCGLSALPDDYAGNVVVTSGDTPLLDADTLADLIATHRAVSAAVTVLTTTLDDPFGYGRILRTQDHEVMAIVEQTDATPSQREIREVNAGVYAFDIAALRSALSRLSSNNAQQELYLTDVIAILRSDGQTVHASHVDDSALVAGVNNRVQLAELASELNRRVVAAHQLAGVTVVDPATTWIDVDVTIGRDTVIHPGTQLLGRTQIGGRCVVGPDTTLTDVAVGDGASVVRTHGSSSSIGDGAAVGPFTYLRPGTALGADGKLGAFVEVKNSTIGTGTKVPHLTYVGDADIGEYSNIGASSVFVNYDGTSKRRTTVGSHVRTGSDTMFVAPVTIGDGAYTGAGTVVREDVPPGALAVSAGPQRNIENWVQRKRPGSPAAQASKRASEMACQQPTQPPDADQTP

Question: What does the source list for O=C1[C@H]2CCCC[C@H]2C(=O)N1CCCCN1CCN(c2nsc3ccccc23)CC1?
Answer: AC50 [1]: 3.47 µM (active); IC50 [2]: > 10 µM (inactive); IC50 [3]: 5.91 µM (inactive); IC50 [4]: 0.546 µM (active); IC50 [5]: 2.06 µM (active); IC50 [6]: 9.37 µM (inactive); IC50 [7]: 13.2 µM (inactive); IC50 [8]: > 10 µM (inactive); IC50 [9]: 2.01 µM (active); IC50 [10]: 8.24 µM (inactive); IC50 [11]: 1.67 µM (active)

Question: For Cc1c(C(=O)N2CCOCC2)[nH]c2ccc(OCc3ccccc3)cc12, which IC50 [12] is on record?
Answer: The IC50 was > 100 µM (not active).

Question: For C=CCn1c(SCC(=O)NCc2ccc3c(c2)OCO3)nc2scc(-c3ccc(F)cc3)c2c1=O, which IC50 [13] is on record?
Answer: The IC50 was > 109 µM (inactive).

Question: And the IC50 [14]?
Answer: Its IC50 is 68.6 µM (inactive).

Question: Which EC50 [15] does the source give for CCN(CC)c1ccc(/C=C2/C(=O)c3ccc(C(=O)O)cc3C2=O)cc1 here?
Answer: Its EC50 is 0.07 µM (active).

Question: And the IC50 [16]?
Answer: The IC50 was 34.3 µM (active).

Question: What about the IC50 (Protein skinhead-1) of the same compound?
Answer: The IC50 was 20.9 µM (active).

Question: For Cn1c(SCC(=O)Nc2cccc(F)c2)nnc1-c1cc2ccccc2o1, which IC50 [17] is on record?
Answer: Its IC50 is 1.67 µM (active).

Question: And the IC50 [18]?
Answer: The IC50 was 2.61 µM (active).

Question: With O=C(/C=C/c1ccccc1)N1CCN(Cc2ccc(Cl)cc2)CC1 as the compound, how does the IC50 [19] read?
Answer: The IC50 was 0.0984 µM (active).

Question: With COc1cc2c(cc1OC)-c1cc(N3CCCCCC3)nc(=O)n1CC2 as the compound, how does the EC50 [20] read?
Answer: The EC50 was > 112 µM (not active).

Question: And the EC50 [21]?
Answer: Its EC50 is 1.66 µM (active).

Question: What about the EC50 [22] of the same compound?
Answer: Its EC50 is < 0.3 µM (active).
